According to PMC9822369, “Synthesis, Biological Evaluation, DNA Binding, and Molecular Docking of Hybrid 4,6-Dihydrazone Pyrimidine Derivatives as Antitumor Agents” (Molecules, 2022):

Experiments:
DNA = tested on: DNA; parameters: method as in PMID 3427013; conditions: classical intercalator; cited from earlier work
A549 cells = assay: MTT cytotoxicity assay, A549 cells; assay type: cell-based; conditions: Homo sapiens, 48 h, read-out: IC50 against A549
Procedure: (§1) The MTT method is often used to detect the cytotoxicity of compounds in vitro [64]. The cytotoxicity of 10a–10f was evaluated by MTT assay against BGC-823, BEL-7402, MCF-7, and A549 tumor cells. HL-7702 was selected to evaluate the safety of 10a–10f against human normal cells. 5-FU was also evaluated as a positive control. The well-grown cells were inoculated in 96-well plates at a density of 3000 cells/well and incubated in 37 °C for 24 h. The negative control group, blank control group, and administration group were set up. The cells were incubated with a gradient concentration (1.25, 2.5, 5, 10, and 20 μg/mL) of samples or 5-FU for 48 h. Then, 20 μL MTT solution (5 mg/mL) was added to each well. After the cells were incubated for 4 h, 150 μL DMSO was added to each well before testing. The absorbance was measured at 570 nm with a microplate reader. The inhibition rate and final IC50 values were calculated according to the following formula. The values shown are the average of at least three parallel trials. Inhibition rate (%) =1 − (ODsample − ODblank)/(ODnegative − ODblank) × 100%.

BEL-7402 cells = assay: MTT cytotoxicity assay, BEL-7402 cells; assay type: cell-based; conditions: Homo sapiens, 48 h, read-out: IC50 against BEL-7402
Procedure: as §1

BGC-823 cells [1] = assay: MTT cytotoxicity assay, BGC-823 cells; assay type: cell-based; conditions: Homo sapiens, 48 h, read-out: IC50 against BGC-823
Procedure: as §1

HL-7702 cells = assay: MTT cytotoxicity assay, normal cells HL-7702; assay type: cell-based; conditions: L02, 48 h, normal human hepatocytes, read-out: IC50 against HL-7702
Procedure: as §1

MCF-7 cells = assay: MTT cytotoxicity assay, MCF-7 cells; assay type: cell-based; conditions: Homo sapiens, MCF7, 48 h, read-out: IC50 against MCF-7
Procedure: as §1

CT-DNA [2] = assay: UV/Vis absorbance titration with CT-DNA; assay type: binding; conditions: hyperchromic effects at 205 nm and 260 nm, no wavelength shift
Procedure: The binding patterns of 10a and 10f with CT-DNA were measured by UV/Vis spectroscopy in Tris-HCl buffer (0.05 M Tris-HCl/0.1 M NaCl, pH 7.4). The stock solution concentrations of both 10a and 10f in DMSO were 10^−3 M. CT-DNA was dissolved in Tris-HCl buffer and stored at 4 °C for use. The stock solution concentration of CT-DNA was determined by UV/Vis absorbance at 260 nm with the extinction coefficient 6600 M^−1·cm^−1 [67]. Tris-HCl buffer was used as a blank to make preliminary adjustments. Absorbance titration experiments were performed at room temperature with the concentrations of 10a and 10f at 0.1 µM, varying the concentrations of CT-DNA (0.2, 0.4, 0.6, 0.8, and 1 µM). The solution was allowed to equilibrate for 2–3 h before measurement. UV/Vis absorption spectra were recorded in the range of 200–400 nm. The binding constant was calculated according to the following equation [54]: […]=[DNA]/(εb−εf)+1/Kb(εb−εf), where εa corresponds to the observed extinction coefficient (A/[DNA]), εf corresponds to the extinction coefficient of the free compound, and εb is the extinction coefficient of the compound when fully bound to CT-DNA. [DNA] is the concentration of CT-DNA added to the compound. The Kb values of 10a and 10f were calculated from the slope to intercept ratio, which was obtained by plotting a graph of [DNA]/(εa − εf) versus [DNA].

CT-DNA [3] = assay: Circular dichroism spectra of CT-DNA; assay type: binding; conditions: CT-DNA 600 μM, compound 100 μM, Tris-HCl pH 7.4
Procedure: The CD spectra of CT-DNA in the absence and presence of 10a or 10f were measured after equilibrating for 1 h in a 1 mm diameter quartz colorimeter at room temperature. The concentration of CT-DNA was fixed at 600 μM in each sample. Both 10a and 10f were added to the above CT-DNA solution at a concentration of 100 μM, respectively. The scanning speed was 200 nm/min. The spectra were scanned on an average of six times in the range of 200–400 nm. All measurements were performed in 0.05 M Tris-HCl buffer (pH 7.4).

BGC-823 cells [4] = assay: AO/EB double staining; assay type: cell-based, Human; conditions: BGC-823, 0.5 IC50, IC50, 1.5 IC50, 24 h
Procedure: AO (500 μL, 1 mg/mL) and EB (500 μL, 1 mg/mL) were mixed, and then 4 mL PBS was added to the above solution to form AO/EB dye […]. AO/EB dye (100 μL) was added to each well. After incubating for 3–5 min and washing twice with cold PBS, BGC-823 cells were observed immediately under an inverted fluorescence microscope.

BGC-823 cells [5] = assay: ROS detection (DCFH-DA) by flow cytometry; assay type: cell-based, Human; conditions: 24 h
Procedure: According to the instructions of ROS Detection Kit (Solarbio, Beijing, China), in situ probe loading was adopted. ROS intensity changes were determined by inverted fluorescence microscopy and flow cytometry. The whole experiment was carried out under dark conditions.

[6] = target: epidermal growth factor receptor kinase; parameters: method as in PMID 30633509; conditions: dual epidermal growth factor receptor kinase and microtubule inhibitor; cited from earlier work

| SMILES | binding constant with DNA (DNA) | IC50 (A549 cells) [µM] | IC50 (BEL-7402 cells) [µM] | IC50 (BGC-823 cells [1]) [µM] | IC50 (HL-7702 cells) [µM] | IC50 (MCF-7 cells) [µM] | interaction mode with DNA (absorption spectra) (CT-DNA [2]) | change of positive (279 nm) and negative (247 nm) CD bands of CT-DNA (CT-DNA [3]) | apoptosis by AO/EB double staining (morphology) (BGC-823 cells [4]) | ROS fluorescence intensity (DCF) (BGC-823 cells [5]; BGC-823, 4 μM) | ROS fluorescence intensity (DCF) (BGC-823 cells [5]; BGC-823, 8 μM) | IC50 [6] [µM] |
| --- | --- | --- | --- | --- | --- | --- | --- | --- | --- | --- | --- | --- |
| CC[n+]1c(-c2ccccc2)c2cc(N)ccc2c2ccc(N)cc21 [EB, Ethidium bromide] | ~10^7 M^−1 | – | – | – | – | – | – | – | – | – | – | – |
| O=c1[nH]cc(F)c(=O)[nH]1 [Compound 5-FU, 5-fluorouracil, reference compound] | – | 11.8 ± 0.89 | 15.81 ± 0.01 | 15.18 ± 0.05 | 20.83 ± 0.05 | 11.3 ± 0.78 | – | – | – | – | – | – |
| Brc1cccc(/C=N/Nc2cc(N/N=C/c3cccc(Br)n3)ncn2)n1 [Compound 10a, 4,6-Bis(2-((E)-(6-bromopyridin-2-yl)methylene)hydrazinyl)pyrimidine] | – | 26.96 ± 0.14 | 6.7 ± 0.4 | 9 ± 0.6 | > 100 | 22.93 ± 0.16 | groove binding and partial intercalation | decreased in intensity | induce apoptosis of BGC-823 cells in a dose-dependent manner | – | – | – |
| Cc1cccc(/C=N/Nc2cc(N/N=C/c3cccc(C)n3)ncn2)n1 [Compound 10c, 4,6-Bis(2-((E)-(6-methylpyridin-2-yl)methylene)hydrazinyl)pyrimidine] | – | 37.3 ± 2.3 | 29.5 ± 0.61 | 26.21 ± 0.1 | 60.51 ± 0.21 | 24 ± 0.43 | – | – | – | – | – | – |
| C(=N\Nc1cc(N/N=C/c2ccccn2)ncn1)/c1ccccn1 [Compound 10b, 4,6-Bis(2-((E)-pyridin-2-ylmethylene)hydrazinyl)pyrimidine] | – | 27.3 ± 0.86 | 15 ± 2 | 20.9 ± 0.82 | 38.4 ± 0.58 | 39.8 ± 1.18 | – | – | – | – | – | – |
| Cc1cccc(/C=N/Nc2cc(N/N=C/c3cccc(C)n3)nc(-c3ccccc3)n2)n1 [Compound 10f, 4,6-Bis(2-((E)-(6-methylpyridin-2-yl)methylene)hydrazinyl)-2-phenylpyrimidine] | – | 37.7 ± 1.37 | 7.66 ± 0.55 | 7.89 ± 0.78 | > 100 | 10.6 ± 0.14 | groove binding and partial intercalation | decreased in intensity | induce apoptosis of BGC-823 cells in a dose-dependent manner | 27.6 | 32.2 | – |
| COc1cc(Nc2ncnc3cc(-c4ccc(C)cc4)sc23)cc(OC)c1OC [Compound 2] | – | – | – | – | – | – | – | – | – | – | – | 0.03 |
| C(=N\Nc1cc(N/N=C/c2ccccn2)nc(-c2ccccc2)n1)/c1ccccn1 [Compound 10e, 4,6-Bis(2-((E)-pyridin-2-ylmethylene)hydrazinyl)-2-phenylpyrimidine] | – | 30.3 ± 0.65 | 20.2 ± 1.43 | 17.7 ± 0.24 | > 100 | 15.7 ± 2 | – | – | – | – | – | – |
| Brc1cccc(/C=N/Nc2cc(N/N=C/c3cccc(Br)n3)nc(-c3ccccc3)n2)n1 [Compound 10d, 4,6-Bis(2-((E)-(6-bromopyridin-2-yl)methylene)hydrazinyl)-2-phenylpyrimidine] | – | 47.1 ± 0.8 | 22.5 ± 2.83 | 20.8 ± 2.69 | > 100 | 27.6 ± 0.45 | – | – | – | – | – | – |
